Experimental data taken from ChEMBL document CHEMBL1201862, “PubChem BioAssay data set” (2004).
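Following 48 hours of exposure in 96-well plates, responses at five concentrations were used to interpolate endpoints linearly. GI50: concentration for 50% inhibition of growth.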 The source made the active and inactive calls. Rule as the data show it: active = GI50 up to about 1.1 µM and inactive = higher.

Columns and labels:
Experiment in all cases: inhibition of tumour cell growth, NCI panel, 48 h
SK-MEL-2 = tested on: SK-MEL-2
RXF 631 = tested on: RXF 631
RXF 393 = tested on: RXF 393
LOX IMVI = tested on: LOX IMVI
A549 = tested on: A549
K562 = tested on: K562
DMS-114 = tested on: DMS-114
SNB-19 = tested on: SNB-19
M14 = tested on: M14
XF498 = tested on: XF498
TK-10 = tested on: TK-10
RPMI-8226 = tested on: RPMI-8226
M19-MEL = tested on: M19-MEL
EKVX = tested on: EKVX
NCI-H460 = tested on: NCI-H460
HOP-62 = tested on: HOP-62
NCI-H23 = tested on: NCI-H23
HCT-15 = tested on: HCT-15
HT-29 = tested on: HT-29
UACC-62 = tested on: UACC-62
HCT-116 = tested on: HCT-116
SF-295 = tested on: SF-295
SF-268 = tested on: SF-268
SK-MEL-28 = tested on: SK-MEL-28
CCRF-CEM = tested on: CCRF-CEM
A498 = tested on: A498
OVCAR-8 = tested on: OVCAR-8
UO-31 = tested on: UO-31
Malme-3M = tested on: Malme-3M
786-0 = tested on: 786-0
MOLT-4 = tested on: MOLT-4
SR = tested on: SR
SNB-75 = tested on: SNB-75
HCC 2998 = tested on: HCC 2998
U-251 = tested on: U-251
SK-MEL-5 = tested on: SK-MEL-5
OVCAR-3 = tested on: OVCAR-3
DMS-273 = tested on: DMS-273
COLO 205 = tested on: COLO 205
SW-620 = tested on: SW-620
SN12C = tested on: SN12C
LXFL 529 = tested on: LXFL 529
ACHN = tested on: ACHN
KM-20L2 = tested on: KM-20L2
HL-60 = tested on: HL-60
SF-539 = tested on: SF-539
DLD-1 = tested on: DLD-1
IGROV-1 = tested on: IGROV-1
NCI-H226 = tested on: NCI-H226
OVCAR-4 = tested on: OVCAR-4
OVCAR-5 = tested on: OVCAR-5
KM12 = tested on: KM12
CAKI-1 = tested on: CAKI-1
NCI-H522 = tested on: NCI-H522
SK-OV-3 = tested on: SK-OV-3
SNB-78 = tested on: SNB-78
HOP-92 = tested on: HOP-92
UACC-257 = tested on: UACC-257

Measured: GI50

COc1c(C)cc2c(c1O)C1NC(C2)[C@H](O)N2C3COC(=O)[C@@]4(CS[C@@H](c5c(OC(C)=O)c(C)c6c(c53)OCO6)C12)NCCC1=C4NC2C=CC=CC12 (stereo not given in full)
active: SK-MEL-2 < 0.01 µM | RXF 631 < 0.01 µM | RXF 393 < 0.01 µM | LOX IMVI < 0.01 µM | A549 < 0.01 µM | K562 < 0.01 µM | DMS-114 < 0.01 µM | SNB-19 < 0.01 µM | M14 < 0.01 µM | XF498 < 0.01 µM | TK-10 < 0.01 µM | RPMI-8226 < 0.01 µM | M19-MEL < 0.01 µM | EKVX < 0.01 µM | NCI-H460 < 0.01 µM | HOP-62 < 0.01 µM | NCI-H23 < 0.01 µM | HT-29 < 0.01 µM | UACC-62 < 0.01 µM | HCT-116 < 0.01 µM | SF-295 < 0.01 µM | SF-268 < 0.01 µM | SK-MEL-28 < 0.01 µM | CCRF-CEM < 0.01 µM | A498 < 0.01 µM | OVCAR-8 < 0.01 µM | UO-31 0.0148 µM | Malme-3M < 0.01 µM | 786-0 < 0.01 µM | MOLT-4 < 0.01 µM | SR < 0.01 µM | SNB-75 < 0.01 µM | HCC 2998 < 0.01 µM | U-251 < 0.01 µM | SK-MEL-5 < 0.01 µM | OVCAR-3 < 0.01 µM | DMS-273 < 0.01 µM | COLO 205 < 0.01 µM | SW-620 < 0.01 µM | SN12C < 0.01 µM | LXFL 529 < 0.01 µM | ACHN < 0.01 µM | KM-20L2 < 0.01 µM | HL-60 < 0.01 µM | SF-539 < 0.01 µM | DLD-1 < 0.01 µM | IGROV-1 < 0.01 µM | NCI-H226 < 0.01 µM
0.0104 µM: HCT-15

COc1cc(Oc2c(O)c(C)c(OC)c(C(C)=O)c2O)c(C(C)=O)c(O)c1C
47.6 µM: HCT-15
inactive: OVCAR-4 45.2 µM | RXF 631 > 100 µM | OVCAR-5 98.2 µM | RXF 393 61.9 µM | LOX IMVI 57.3 µM | KM12 65.3 µM | CAKI-1 60.3 µM | A549 45.8 µM | DMS-114 47.5 µM | SNB-19 63 µM | M14 64.3 µM | XF498 59.6 µM | TK-10 49.4 µM | M19-MEL 55.5 µM | NCI-H460 46.9 µM | HOP-62 34.3 µM | NCI-H23 34.4 µM | HT-29 71.8 µM | NCI-H522 12.9 µM | UACC-62 40.5 µM | HCT-116 52.8 µM | SF-295 > 100 µM | SF-268 66.4 µM | SK-MEL-28 50.6 µM | CCRF-CEM > 100 µM | SK-OV-3 > 100 µM | OVCAR-8 51.6 µM | UO-31 43.1 µM | Malme-3M 42.8 µM | 786-0 60.7 µM | SR > 100 µM | SNB-75 > 100 µM | HCC 2998 59 µM | U-251 44.2 µM | SK-MEL-5 35.2 µM | OVCAR-3 43 µM | SNB-78 > 100 µM | DMS-273 37.8 µM | COLO 205 60.1 µM | SW-620 57.3 µM | SN12C 34.9 µM | HOP-92 44.6 µM | LXFL 529 49.5 µM | ACHN 46.5 µM | KM-20L2 63.8 µM | SF-539 62.2 µM | DLD-1 66.7 µM | IGROV-1 67.3 µM | NCI-H226 85.9 µM | UACC-257 40.6 µM
